The nature of one series: Kinetic solubility assay. Type of series: physicochemical. As to conditions: phosphate-buffered saline pH 7.4 with 2% DMSO, aqueous buffer, kinetic from dmso stock; pH 7.4 PBS + 2% DMSO, 25° C., two hours; effective range approximately 2-400 μM. As for the experimental part: Equipment: Water purification system Millipore Milli-Q Gradient A10 (Millipore, France); Thermomixer R Block, 1.5 ml (Eppendorf, Germany; Cat #5355); Matrix Multichannel Electronic Pipette 2-125 μL, 5-250 μL, 15-1250 μL (Thermo Scientific, USA; Cat ##2011, 2012, 2004); SpectraMax Plus Microplate Reader (Molecular Devices, USA; Product #02196); Multi-Well Plate Vacuum Manifold (Pall Corporation, USA; Product #5014); and Vacuum pump (Millipore, USA; Model #XX5500000)
Analytical System: The measurements were performed using SpectraMax Plus reader in UV-Vis mode. Acquisition and analysis of the data were performed using SoftMax Pro v.5.4 (Molecular Devices) and Excel 2010 data analysis software.
Methods: Briefly, using a 20 mM stock solution of the compound in 100% DMSO dilutions were prepared to a theoretical concentration of 400 μM in duplicates in phosphate-buffered saline pH 7.4 (138 mM NaCl, 2.7 mM KCl, 10 mM K-phosphate) with 2% final DMSO. The experimental compound dilutions in PBS were further allowed to equilibrate at 25° C. on a thermostatic shaker for two hours and then filtered through HTS filter plates using a vacuum manifold. The filtrates of test compounds were diluted 2-fold with acetonitrile with 2% DMSO before measuring.
In parallel, compound dilutions in acetonitrile/PBS (1:1) were prepared to theoretical concentrations of 0 μM (blank), 10 μM, 25 μM, 50 μM, 100 μM, and 200 μM with 2% final DMSO to generate calibration curves. Ondansetron was used as reference compound to control proper assay performance. 200 μL of each sample was transferred to 96-well plate and measured in 200-550 nm range with 5 nm step.
The concentrations of compounds in PBS filtrate are calculated using a dedicated Microsoft Excel calculation script. Proper absorbance wavelengths for calculations are selected for each compound manually based on absorbance maximums (absolute absorbance unit values for the minimum and maximum concentration points within 0-3 OD range). Each of the final datasets is additionally visually evaluated by the operator and goodness of fit (R2) is calculated for each calibration curve. […] This method is not suitable for liquid (at 25° C.) substances (were not present among the tested compounds). Table 3A provides the kinetic solubility for some of the exemplified compounds.

The test system of series [1] is PANC-1 pancreatic cancer cell line (KRAS G12D). Description: Cell proliferation assay (CellTiter 96 Aqueous One). The class given is cell-based. The following applies: Homo sapiens; PANC-1, 2-4 days, 10% FBS. A digest of the protocol:
(§1)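 Read-out is MTS-based viability (CellTiter 96 Aqueous One) after 2–4 days of compound exposure at 37 °C in 10% FBS with 0.3% DMSO.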

Series [2] concerns MIA-PaCa-2 pancreatic cancer cell line (KRAS G12C). The description is as above. The class given is cell-based. The following applies: Homo sapiens; for inhibition at 10 µM: MIA PaCa-2, read-out: % inh cell proliferation (10 μM) in MIA PaCa-2. An outline of the steps: as §1
Series [3] deals with A-549 NSCLC cell line (KRAS G12S). The description is as above. The class given is cell-based. The following applies: Homo sapiens; A549, 2-4 days, 10% FBS. A digest of the protocol:
as §1

Series [4] concerns SW-620 colorectal cancer cell line (KRAS G12V). The description is as above. Type of series: cell-based. As to conditions: Homo sapiens; SW-620, 2-4 days, 10% FBS. A digest of the protocol: as §1
Series [5] deals with Akt phosphorylation in Panc-1 cells. Description: Western AKT cell-based phosphorylation assay. As to conditions: at 10 μM, values in brackets < > are activation %, not inhibition. Also noted: species or system human. An outline of the steps:
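Phospho-Akt (Ser473) western blot of Panc-1 lysates, with Ponceau S to confirm uniform loading. Before lysis, cells were serum-starved overnight (0.5% FBS), incubated 6 h at 37° C with 10 μM compound in 0.3% DMSO and stimulated 15 min with 1.5 ng/ml EGF.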

The mark [6] stands for this setting: MIA PaCa-2, MIA-PaCa-2, 2-4 days, 10% FBS.

This note sets out measurements from patent US20230227466A1, “SUBSTITUTED THIENOPYRIMIDINES THAT INTERACT WITH THE RAS SUPERFAMILY FOR THE TREATMENT OF CANCERS, INFLAMMATORY DISEASES, RASOPATHIES, AND FIBROTIC DISEASE” (SHY Therapeutics, LLC, priority 2020, published 2023).

SMILES strings stand for the structures. Bounds are passed on as bounds.

As usually defined, the kinetic solubility is solubility judged after dilution from a stock solution rather than from solid. The IC50 is the concentration at which inhibition is half-maximal. Read a low IC50 as inhibition by little substance. For `CO[C@@H]1CC[C@H](Nc2nc(-c3nccn3C)nc3sc(-c4ccn(C(C)C)n4)c(-c4ccccc4)c23)C1` [Example 4, 6-(1-isopropyl-1H-pyrazol-3-yl)-N-((1S,3R)-3-methoxycyclopentyl)-2-(1-methyl-1H-imidazol-2-yl)-5-phenylthieno[2,3-d]pyrimidin-4-amine], in “Kinetic solubility assay”, the solubility (kinetic) at 2 h came to 5 µM. Further, the concentration for half-maximal inhibition (IC50) in series [1] is less than 0.4 µM; in series [2] (MIA PaCa-2, MIA PaCa-2) it was less than 1 µM; in series [2] (setting [6]) it was less than 0.4 µM; in series [3], 0.4 to 0.75 µM; in series [4], 0.4 to 0.75 µM. Besides, the inhibition at 10 µM in series [2] lay within 76 to 100%. Also, the “% inh of AKT phosphorylation in PANC-1” value in series [5] is reported as “D (76-100% inhibition)”.
On to `COC1CCN(c2nc(-c3nccn3C)nc3sc(-c4ccn(C(C)C)n4)c(C)c23)C1` (racemic) [Compound 34, rac-6-(1-Isopropyl-1H-pyrazol-3-yl)-4-(3-methoxypyrrolidin-1-yl)-5-methyl-2-(1-methyl-1H-imidazol-2-yl)thieno[2,3-d]pyrimidine], for which the solubility (kinetic) at 2 h in the series “Kinetic solubility assay” is more than 400 µM. The compound also displayed a half-inhibitory concentration (IC50) in series [2] (MIA PaCa-2, MIA PaCa-2) of 1 to 4.99 µM. Moreover, the inhibition at 10 µM in series [2] is 76 to 100%. The “% inh of AKT phosphorylation in PANC-1” value in series [5] is given as 0 (0% inhibition).
Turning to `CO[C@H]1CC(Nc2nc(-c3nccn3C)nc3sc(-c4ccn(C(C)C)n4)c(C)c23)C[C@@H]1OC` (racemic) [Compound 44, rac-N-((3S,4S)-3,4-Dimethoxycyclopentyl)-6-(1-isopropyl-1H-pyrazol-3-yl)-5-methyl-2-(1-methyl-1H-imidazol-2-yl)thieno[2,3-d]pyrimidin-4-amine], in the series “Kinetic solubility assay”, the kinetic solubility at 2 h came out at 76 µM. This compound returned an IC50 in series [2] (MIA PaCa-2, MIA PaCa-2) of 1 to 4.99 µM. The inhibition at 10 µM in series [2] was 76 to 100%. Besides, in series [5], the “% inh of AKT phosphorylation in PANC-1” value was “<A>”.
`COC[C@@H]1CC[C@@H]1CNc1nc(-c2nccn2C)nc2sc(-c3ccn(C(C)C)n3)c(C)c12` (racemic) [Compound 63, rac-6-(1-Isopropyl-1H-pyrazol-3-y)-N-(((1S,2R)-2-(methoxymethyl)cyclobutyl)methyl)-5-methyl-2-(1-methyl-1H-imidazol-2-yl)thieno[2,3-d]pyrimidin-4-amine]: the solubility (kinetic) at 2 h in “Kinetic solubility assay” stood at 18 µM. Further, the IC50 is 0.4 to 0.75 µM in series [1]; less than 1 µM in series [2] (MIA PaCa-2, MIA PaCa-2); less than 0.4 µM in series [2] (setting [6]); 0.4 to 0.75 µM in series [3]; less than 0.4 µM in series [4]. Besides, the inhibition at 10 µM in series [2] fell in the range of 76 to 100%. Further, the “% inh of AKT phosphorylation in PANC-1” value in series [5] is “C (51-75% inhibition)”.
For the compound `COC1CCCN(c2nc(-c3nccn3C)nc3sc(-c4ccn(C(C)C)n4)c(C)c23)C1` (racemic) [Compound 40, rac-6-(1-Isopropyl-1H-pyrazol-3-yl)-4-(3-methoxypiperidin-1-yl)-5-methyl-2-(1-methyl-1H-imidazol-2-yl)thieno[2,3-d]pyrimidine], the kinetic solubility at 2 h in the series “Kinetic solubility assay” stood at 82 µM. The compound further came in with an IC50 in series [2] (MIA PaCa-2, MIA PaCa-2) of less than 1 µM. Also, the inhibition at 10 µM in series [2] lay within 76 to 100%. Moreover, the “% inh of AKT phosphorylation in PANC-1” value in series [5] was “D (76-100% inhibition)”.
Take `COc1cc(Nc2nc(-c3nccn3C)nc3sc(-c4ccn(C(C)C)n4)c(C)c23)ncn1` [Compound 66, 6-(1-Isopropyl-1H-pyrazol-3-yl)-N-(6-methoxypyrimidin-4-yl)-5-methyl-2-(1-methyl-1H-imidazol-2-yl)thieno[2,3-d]pyrimidin-4-amine]: in “Kinetic solubility assay”, the solubility (kinetic) at 2 h worked out at 4 µM. Also, in series [2] (MIA PaCa-2, MIA PaCa-2), the IC50 was less than 1 µM. In addition, the inhibition at 10 µM in series [2] was in the range of 76 to 100%. Moreover, the “% inh of AKT phosphorylation in PANC-1” value in series [5] was “B (26-50% inhibition)”.
For `CO[C@H]1CC[C@@H](Nc2nc(-c3ccccn3)nc3sc(-c4ccn(C(C)C)n4)c(C)c23)C1` (racemic) [Compound 69, Rac-6-(1-isopropyl-1H-pyrazol-3-yl)-N-((1R,3S)-3-methoxycyclopentyl)-5-methyl-2-(pyridine-2-yl)thieno[2,3-d]pyrimidin-4-amine] the same measures were 79 µM, 5 to 10 µM, 76 to 100% and “D (76-100% inhibition)”.
Turning to `COCC1CCN(c2nc(-c3nccn3C)nc3sc(-c4ccn(C(C)C)n4)c(C)c23)C1` (racemic) [Compound 38, rac-6-(1-Isopropyl-1H-pyrazol-3-yl)-4-(3-(methoxymethyl)pyrrolidin-1-yl)-5-methyl-2-(1-methyl-1H-imidazol-2-yl)thieno[2,3-d]pyrimidine], in the series “Kinetic solubility assay”, the kinetic solubility at 2 h was more than 400 µM. Besides, the half-maximal inhibitory concentration (IC50) in series [1] lay within 0.75 to 1 µM; in series [2] (MIA PaCa-2, MIA PaCa-2), 1 to 4.99 µM; in series [2] (setting [6]) it was 0.75 to 1 µM; in series [3], 0.75 to 1 µM; in series [4], 0.75 to 1 µM. Also, in series [2], the inhibition at 10 µM fell in the range of 76 to 100%. The “% inh of AKT phosphorylation in PANC-1” value in series [5] is recorded as “B (26-50% inhibition)”.
`COCCCNc1nc(-c2nccn2C)nc2sc(-c3ccn(C(C)C)n3)c(C)c12` [Compound 36, 6-(1-Isopropyl-1H-pyrazol-3-yl)-N-(3-methoxypropyl)-5-methyl-2-(1-methyl-1H-imidazol-2-yl)thieno[2,3-d]pyrimidin-4-amine]: the kinetic solubility at 2 h in “Kinetic solubility assay” stood at 268 µM. Also, in series [2] (MIA PaCa-2, MIA PaCa-2), the IC50 was less than 1 µM. Further, the inhibition at 10 µM in series [2] fell in the range of 76 to 100%. In series [5], the “% inh of AKT phosphorylation in PANC-1” value is given as 0 (0% inhibition).
For `CO[C@@H]1CC[C@@H](Nc2nc(-c3nccn3C)nc3sc(-c4ccn(C(C)C)n4)c(C)c23)C1` (racemic) [Compound 33, rac-6-(1-Isopropyl-1H-pyrazol-3-yl)-N-((1R,3R)-3-methoxycyclopentyl)-5-methyl-2-(1-methyl-1H-imidazol-2-yl)thieno[2,3-d]pyrimidin-4-amine] the same measures were 49 µM, 1 to 4.99 µM, 76 to 100% and 0 (0% inhibition).
